In paper PMC3139250 (Phytochemistry letters, 2011) one finds IC50 data, which are given here for 1 molecule.

SMILES strings stand for the structures.

The experiment addresses mitochondrial ETC complex I (NADH-ubiquinone oxidoreductase) (Homo sapiens, UniProt O75251+O75306+P03886). Put plainly: Oxygen consumption. It is filed as cell-based.

As to `CC(C)(O)[C@H]1CC[C@](C)([C@@H](O)CC[C@](C)(O)[C@H]2CC[C@H]3O[C@@H]([C@]4(C)CC[C@@H](Br)C(C)(C)O4)CC[C@]3(C)O2)O1` [compound 1, thyrsiferol], half-maximal inhibition (IC50) was put at 3 µM.
